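GI50 = concentration required for 50% inhibition of growth. At the TGI there is no net growth.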
How the values were obtained:
Assay in all cases: NCI anticancer screen, dose series, 384-well format
A498 renal = system: A498 renal
TK-10 renal = system: TK-10 renal
NCI-H226 lung = system: NCI-H226 lung
HS 578T breast = system: HS 578T breast
CCRF-CEM leukemia = system: CCRF-CEM leukemia
HOP-62 NSCLC = system: HOP-62 NSCLC
CAKI-1 renal = system: CAKI-1 renal
OVCAR-3 ovarian = system: OVCAR-3 ovarian
HT29 colon = system: HT29 colon
COLO 205 colon = system: COLO 205 colon
SR leukemia = system: SR leukemia
SK-MEL-28 melanoma = system: SK-MEL-28 melanoma
K-562 leukemia = system: K-562 leukemia
NCI-H460 NSCLC = system: NCI-H460 NSCLC
SNB-75 CNS = system: SNB-75 CNS
PC-3 prostate = system: PC-3 prostate
786-0 renal = system: 786-0 renal
U251 glioblastoma = system: U251 glioblastoma
OVCAR-8 ovarian = system: OVCAR-8 ovarian
UO-31 renal = system: UO-31 renal
DU-145 prostate = system: DU-145 prostate
LOX IMVI melanoma = system: LOX IMVI melanoma
NCI-H322M lung = system: NCI-H322M lung
HL-60(TB) leukemia = system: HL-60(TB) leukemia
HCT-15 colon = system: HCT-15 colon
RPMI-8226 leukemia = system: RPMI-8226 leukemia
SN12C renal = system: SN12C renal
BT-549 breast = system: BT-549 breast
SW-620 colon = system: SW-620 colon
HCC-2998 colon = system: HCC-2998 colon
MALME-3M melanoma = system: MALME-3M melanoma
MCF7 breast = system: MCF7 breast
UACC-257 melanoma = system: UACC-257 melanoma
IGROV1 ovarian = system: IGROV1 ovarian
SF-268 CNS = system: SF-268 CNS
MOLT-4 leukemia = system: MOLT-4 leukemia
MDA-MB-435 melanoma = system: MDA-MB-435 melanoma
T-47D breast = system: T-47D breast
ACHN renal = system: ACHN renal
M14 melanoma = system: M14 melanoma
SNB-19 CNS = system: SNB-19 CNS
MDA-MB-231 breast = system: MDA-MB-231 breast
SF-295 CNS = system: SF-295 CNS
RXF 393 renal = system: RXF 393 renal
HCT-116 colon = system: HCT-116 colon
NCI-H522 lung = system: NCI-H522 lung
NCI/ADR-RES ovarian = system: NCI/ADR-RES ovarian
A549 NSCLC = system: A549 NSCLC
MDA-MB-468 breast = system: MDA-MB-468 breast
SK-MEL-5 melanoma = system: SK-MEL-5 melanoma
KM12 colon = system: KM12 colon
SF-539 CNS = system: SF-539 CNS
OVCAR-4 ovarian = system: OVCAR-4 ovarian
NCI-H23 lung = system: NCI-H23 lung
HOP-92 NSCLC = system: HOP-92 NSCLC
SK-OV-3 ovarian = system: SK-OV-3 ovarian
EKVX NSCLC = system: EKVX NSCLC
UACC-62 melanoma = system: UACC-62 melanoma

With `Nc1cc(C(F)(F)F)c(-c2nc(N3CCOCC3)nc(N3CCOCC3)n2)cn1` as the molecule, how does the GI50 (A498 renal) read?
Its GI50 is 320 nM.

And the TGI (A498 renal)?
Its TGI is 2260 nM.

What about the GI50 (TK-10 renal) of the same molecule?
Its GI50 is 432 nM.

What about the TGI (TK-10 renal) of the same molecule?
The TGI was 3870 nM.

What about the GI50 (NCI-H226 lung) of the same molecule?
The GI50 was 563 nM.

And the TGI (NCI-H226 lung)?
Its TGI is 4350 nM.

What about the GI50 (HS 578T breast) of the same molecule?
The GI50 was 276 nM.

And the TGI (HS 578T breast)?
Its TGI is 1860 nM.

What about the GI50 (CCRF-CEM leukemia) of the same molecule?
The GI50 was 1340 nM.

And the TGI (CCRF-CEM leukemia)?
Its TGI is 10900 nM.

And the GI50 (HOP-62 NSCLC)?
Its GI50 is 1310 nM.

What about the TGI (HOP-62 NSCLC) of the same molecule?
The TGI was 14100 nM.

And the GI50 (CAKI-1 renal)?
The GI50 was 292 nM.

And the TGI (CAKI-1 renal)?
The TGI was 2950 nM.

What about the GI50 (OVCAR-3 ovarian) of the same molecule?
The GI50 was 354 nM.

What about the TGI (OVCAR-3 ovarian) of the same molecule?
The TGI was 3920 nM.

What about the GI50 (HT29 colon) of the same molecule?
Its GI50 is 554 nM.

And the TGI (HT29 colon)?
The TGI was 14800 nM.

And the GI50 (COLO 205 colon)?
The GI50 was 544 nM.

What about the TGI (COLO 205 colon) of the same molecule?
The TGI was 9660 nM.

What about the TGI (SR leukemia) of the same molecule?
The TGI was 255 nM.

What about the GI50 (SK-MEL-28 melanoma) of the same molecule?
The GI50 was 461 nM.

And the TGI (SK-MEL-28 melanoma)?
The TGI was 6540 nM.

What about the GI50 (K-562 leukemia) of the same molecule?
The GI50 was 2780 nM.

And the TGI (K-562 leukemia)?
Its TGI is 40500 nM.

What about the GI50 (NCI-H460 NSCLC) of the same molecule?
The GI50 was 246 nM.

What about the TGI (NCI-H460 NSCLC) of the same molecule?
Its TGI is 10400 nM.

What about the GI50 (SNB-75 CNS) of the same molecule?
The GI50 was 288 nM.

And the TGI (SNB-75 CNS)?
The TGI was 2920 nM.

And the GI50 (PC-3 prostate)?
The GI50 was 291 nM.

And the TGI (PC-3 prostate)?
Its TGI is 4270 nM.

And the GI50 ([…]-0 renal)?
The GI50 was 1320 nM.

What about the TGI (786-0 renal) of the same molecule?
Its TGI is 12100 nM.

And the GI50 (U251 glioblastoma)?
Its GI50 is 3230 nM.

What about the TGI (U251 glioblastoma) of the same molecule?
Its TGI is 95500 nM.

And the GI50 (OVCAR-8 ovarian)?
Its GI50 is 1120 nM.

What about the TGI (OVCAR-8 ovarian) of the same molecule?
Its TGI is 93600 nM.

What about the GI50 (UO-31 renal) of the same molecule?
Its GI50 is 426 nM.

What about the TGI (UO-31 renal) of the same molecule?
Its TGI is 19200 nM.

And the GI50 (DU-145 prostate)?
Its GI50 is 847 nM.

And the TGI (DU-145 prostate)?
The TGI was 21300 nM.

And the GI50 (LOX IMVI melanoma)?
Its GI50 is 1570 nM.

And the TGI (LOX IMVI melanoma)?
The TGI was 9360 nM.

What about the GI50 (NCI-H322M lung) of the same molecule?
Its GI50 is 534 nM.

What about the TGI (NCI-H322M lung) of the same molecule?
Its TGI is 11500 nM.

What about the GI50 (HL-60(TB) leukemia) of the same molecule?
Its GI50 is 170 nM.

And the TGI (HL-60(TB) leukemia)?
The TGI was 3430 nM.

What about the GI50 (HCT-15 colon) of the same molecule?
The GI50 was 497 nM.

And the TGI (HCT-15 colon)?
The TGI was greater than 100000 nM.

And the GI50 (RPMI-8226 leukemia)?
The GI50 was 221 nM.

And the TGI (RPMI-8226 leukemia)?
Its TGI is 1270 nM.

What about the GI50 (SN12C renal) of the same molecule?
Its GI50 is 195 nM.

And the TGI (SN12C renal)?
The TGI was 2300 nM.

And the GI50 (BT-549 breast)?
The GI50 was 678 nM.

And the TGI (BT-549 breast)?
Its TGI is 4420 nM.

What about the GI50 (SW-620 colon) of the same molecule?
The GI50 was 2600 nM.

What about the TGI (SW-620 colon) of the same molecule?
The TGI was greater than 100000 nM.

What about the GI50 (HCC-2998 colon) of the same molecule?
Its GI50 is 1100 nM.

What about the TGI (HCC-2998 colon) of the same molecule?
Its TGI is 48900 nM.

And the GI50 (MALME-3M melanoma)?
Its GI50 is 174 nM.

What about the TGI (MALME-3M melanoma) of the same molecule?
The TGI was 1030 nM.

And the GI50 (MCF7 breast)?
Its GI50 is 151 nM.

And the TGI (MCF7 breast)?
The TGI was 11900 nM.

And the GI50 (UACC-257 melanoma)?
The GI50 was 1700 nM.

And the TGI (UACC-257 melanoma)?
Its TGI is 20800 nM.

And the GI50 (IGROV1 ovarian)?
Its GI50 is 119 nM.

What about the TGI (IGROV1 ovarian) of the same molecule?
The TGI was 468 nM.

What about the GI50 (SF-268 CNS) of the same molecule?
The GI50 was 1460 nM.

What about the TGI (SF-268 CNS) of the same molecule?
Its TGI is 18200 nM.

What about the GI50 (MOLT-4 leukemia) of the same molecule?
The GI50 was 293 nM.

And the TGI (MOLT-4 leukemia)?
Its TGI is 1610 nM.

And the GI50 (MDA-MB-435 melanoma)?
The GI50 was 1600 nM.

What about the TGI (MDA-MB-435 melanoma) of the same molecule?
Its TGI is 9730 nM.

What about the GI50 (T-47D breast) of the same molecule?
The GI50 was 107 nM.

And the TGI (T-47D breast)?
The TGI was 583 nM.

And the GI50 (ACHN renal)?
Its GI50 is 570 nM.

And the TGI (ACHN renal)?
The TGI was 8660 nM.

What about the GI50 (M14 melanoma) of the same molecule?
Its GI50 is 616 nM.

What about the TGI (M14 melanoma) of the same molecule?
The TGI was 12500 nM.

What about the GI50 (SNB-19 CNS) of the same molecule?
Its GI50 is 8530 nM.

What about the TGI (SNB-19 CNS) of the same molecule?
The TGI was 50200 nM.

What about the GI50 (MDA-MB-231 breast) of the same molecule?
The GI50 was 834 nM.

What about the TGI (MDA-MB-231 breast) of the same molecule?
The TGI was 38700 nM.

What about the GI50 (SF-295 CNS) of the same molecule?
The GI50 was 405 nM.

What about the TGI (SF-295 CNS) of the same molecule?
The TGI was 2440 nM.

What about the GI50 (RXF 393 renal) of the same molecule?
Its GI50 is 1150 nM.

What about the TGI (RXF 393 renal) of the same molecule?
The TGI was 4960 nM.

What about the GI50 (HCT-116 colon) of the same molecule?
Its GI50 is 833 nM.

And the TGI (HCT-116 colon)?
Its TGI is 22500 nM.

And the GI50 (NCI-H522 lung)?
The GI50 was 360 nM.

What about the TGI (NCI-H522 lung) of the same molecule?
The TGI was 10200 nM.

What about the GI50 (NCI/ADR-RES ovarian) of the same molecule?
Its GI50 is 1920 nM.

And the TGI (NCI/ADR-RES ovarian)?
Its TGI is 17300 nM.

What about the GI50 (A549 NSCLC) of the same molecule?
Its GI50 is 902 nM.

What about the TGI (A549 NSCLC) of the same molecule?
The TGI was 9000 nM.

What about the GI50 (MDA-MB-468 breast) of the same molecule?
Its GI50 is 353 nM.

And the TGI (MDA-MB-468 breast)?
Its TGI is 2200 nM.

And the GI50 (SK-MEL-5 melanoma)?
Its GI50 is 503 nM.

And the TGI (SK-MEL-5 melanoma)?
The TGI was 2810 nM.

What about the GI50 (KM12 colon) of the same molecule?
Its GI50 is 1270 nM.

What about the TGI (KM12 colon) of the same molecule?
The TGI was 14600 nM.

And the GI50 (SF-539 CNS)?
The GI50 was 1150 nM.

And the TGI (SF-539 CNS)?
Its TGI is 13700 nM.

And the GI50 (OVCAR-4 ovarian)?
Its GI50 is 1480 nM.

And the TGI (OVCAR-4 ovarian)?
The TGI was 7900 nM.

And the GI50 (NCI-H23 lung)?
Its GI50 is 552 nM.

What about the TGI (NCI-H23 lung) of the same molecule?
Its TGI is 15900 nM.

And the GI50 (HOP-92 NSCLC)?
Its GI50 is 274 nM.

What about the TGI (HOP-92 NSCLC) of the same molecule?
Its TGI is 2120 nM.

And the GI50 (SK-OV-3 ovarian)?
The GI50 was 332 nM.

What about the TGI (SK-OV-3 ovarian) of the same molecule?
The TGI was 2040 nM.

And the GI50 (EKVX NSCLC)?
The GI50 was 342 nM.

And the TGI (EKVX NSCLC)?
The TGI was 3530 nM.

What about the GI50 (UACC-62 melanoma) of the same molecule?
The GI50 was 520 nM.

And the TGI (UACC-62 melanoma)?
Its TGI is 3790 nM.
